Values of other authors as cited in US20060045928A1, “Composition containing herbal medicine component for promoting absorption and production method thereof” (priority 2004, published 2006).

Conditions: carrot fried with oil

Structure (SMILES): CC1=C(/C=C/C(C)=C/C=C/C(C)=C/C=C/C=C(C)/C=C/C=C(C)/C=C/C2=C(C)CCCC2(C)C)C(C)(C)CCC1 [β-carotene]
- absorption rate improvement, compared with eating raw carrot: 5 to 10 times
